For 19 compounds, DC50 results are on record in patent publication US20230192644A1, “PIPERIDINE-2,6-DIONES AS SMALL MOLECULE DEGRADERS OF HELIOS AND METHODS OF USE” (DANA-FARBER CANCER INSTITUTE, INC., priority 2020, published 2023).

For orientation: DC50 means the midpoint of the concentration-degradation curve.

Like-named read-outs stand apart in the source and are kept apart here.

Format in all cases: cell-based
In assay [1] the test system is IKZF2. Briefly: GFP-IKZF2 cellular degradation assay (eGFP fusion/mCherry reporter, Flip-In 293 cells). As to conditions: Flip-In 293 cells stably expressing IKZF2 GFP fusion with mCherry reporter, 5 h. The procedure:
IKZF1A and IKZF2A were subcloned into mammalian pcDNA5/FRT Vector (Ampicillin and Hygromycin B resistant) modified to contain MCS-eGFP-P2A-mCherry. Stable cell lines expressing eGFP-protein fusion and mCherry reporter were generated using Flip-In 293 system. Plasmid (0.3 μg) and pOG44 (4.7 μg) DNA were preincubated in 100 μL of Opti-MEM™ I (Gibco™, Life Technologies™) media containing 0.05 mg/mL Lipofectamine™ 2000 (Invitrogen™) for 20 min and added to Flip-In 293 cells containing 1.9 mL of DMEM media (Gibco™, Life Technologies™) per well in a 6-well plate format (Falcon, 353046). Cells were propagated for 48 h and were then transferred into a 10 cm^2 plate (Corning, 430165) in DMEM media containing 50 μg/mL of Hygromycin B (REF 10687010, Invitrogen™) as a selection marker. Following 2-3 passage cycle, FACS (FACSAria™ II, BD) was used to enrich for cells expressing eGFP and mCherry.
(§1) Cells stably expressing the IKZF1A, or IKZF2A GFP fusions with mCherry reporter were seeded at 30-50% confluency in 384-well plates with 50 μL FluoroBrite™ DMEM media (Thermo Fisher Scientific™ A18967) containing 10% FBS per well a day before compound treatment. Compound titrations were dispensed using a D300e Digital Dispenser (HP), normalized to 0.5% DMSO, and incubated with cells for 5 hours.
(§2) The assay plate was imaged immediately using an Acumen High Content Imager (TTP Labtech) with 488 nm and 561 nm lasers in […] per well format. The resulting images were analyzed using CellProfiler (Carpenter et al., Genome Biol. 2006, 7:R100). A series of image analysis steps (‘image analysis pipeline’) was constructed. First, the red and green channels were aligned and cropped to target the middle of each well (to avoid analysis of heavily clumped cells at the edges), and a background illumination function was calculated for both red and green channels of each well individually and subtracted to correct for illumination variations across the 384-well plate from various sources of error. An additional step was then applied to the green channel to suppress the analysis of large auto fluorescent artifacts and enhance the analysis of cell specific fluorescence by way of selecting for objects under a given size, 30 A.U., and with a given shape, speckles. mCherry-positive cells were then identified in the red channel filtering for objects between 8-60 pixels in diameter and using intensity to distinguish between clumped objects. The green channel was then segmented into GFP positive and negative areas and objects were labeled as GFP positive if at least 40% of it overlapped with a GFP positive area. The fraction of GFP-positive cells/mCherry-positive cells in each well was then calculated, and the green and red images were rescaled for visualization. The concentrations that lead to half degradation at 5 h (DC50, 5h) were calculated using the nonlinear fit variable slope model (GraphPad Software).

Assay [2] addresses T1, IKZF1 (Homo sapiens, UniProt Q13422).
T1 construct: expressed in transfected cells
The assay is described as follows: GFP-IKZF1 cellular degradation assay (eGFP fusion/mCherry reporter, Flip-In 293 cells). The procedure:
IKZF1A and IKZF2A were subcloned into mammalian pcDNA5/FRT Vector (Ampicillin and Hygromycin B resistant) modified to contain MCS-eGFP-P2A-mCherry. […] Following 2-3 passage cycle, FACS (FACSAria™ II, BD) was used to enrich for cells expressing eGFP and mCherry.
as §1
as §2, with “The resulting images were analyzed using CellProfiler (Carpenter et al., Genome Biol. 2006, 7:R100).” left out

Assay [3] concerns the target T2, IKZF2 (Homo sapiens, UniProt Q96SW2+Q9UKS7).
T2 construct: knocked into the endogenous IKZF2 or IKZF1 locus of Molt4 cells; endogenous in cells; host or cells: Molt4 (CRISPR/Cas9 HiBit knock-in)
The assay is described as follows: HiBit-IKZF2 degradation assay in Molt4 cells. On the procedure: (§3) The HiBit tag was knocked into the endogenous IKZF2 or IKZF1 locus of Molt4 cells to generate a HiBit-IKZF2 or HiBit-IKZF1 fusion proteins via CRISPR/Cas9 gene editing. Cells were then treated with a 12 point concentration curve of the indicated compounds, and luminescence (corresponding to Helios abundance) was detected after 6 hours using the Nano-Glo® HiBit Lytic Detection system (Promega™). The concentration necessary to achieve 50% degradation (DC50) was calculated using Prism (GraphPad).
A general note: With HiBiT, luminescence reflects the tagged protein that the partner subunit can reach.

In assay [4] the target is T3, IKZF1 (Homo sapiens, UniProt Q13422+Q96SW2).
T3 construct: knocked into the endogenous IKZF2 or IKZF1 locus of Molt4 cells; endogenous in cells; host or cells: Molt4 (CRISPR/Cas9 HiBit knock-in)
The assay is described as follows: HiBit-IKZF1 degradation assay in Molt4 cells. On the procedure: as §3

Setting [5] is: Flip-In 293 cells stably expressing IKZF1 GFP fusion with mCherry reporter, 5 h; read-out: GFP IKZF1 DC50.
Setting [6] is: read-out: IKZF2 DC50; Molt4 cells with endogenous HiBit-IKZF2 knock-in, 6 hours, Nano-Glo HiBit luminescence.
The mark [7] stands for this setting: read-out: IKZF1 DC50; Molt4 cells with endogenous HiBit-IKZF1 knock-in, 6 hours, Nano-Glo HiBit luminescence.
Where [8] appears, read: read-out: GFP IKZF1 DC50; Flip-In 293 cells stably expressing IKZF1 GFP fusion with mCherry reporter, 5 h.

T1 sequence (Q13422 83-213 isoform Q13422-7 limits assumed): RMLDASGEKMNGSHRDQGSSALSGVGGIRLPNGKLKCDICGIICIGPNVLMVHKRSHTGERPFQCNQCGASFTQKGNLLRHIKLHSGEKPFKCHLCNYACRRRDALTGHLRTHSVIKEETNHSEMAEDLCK
T1 sequence (Q96SW2 whole entry partner): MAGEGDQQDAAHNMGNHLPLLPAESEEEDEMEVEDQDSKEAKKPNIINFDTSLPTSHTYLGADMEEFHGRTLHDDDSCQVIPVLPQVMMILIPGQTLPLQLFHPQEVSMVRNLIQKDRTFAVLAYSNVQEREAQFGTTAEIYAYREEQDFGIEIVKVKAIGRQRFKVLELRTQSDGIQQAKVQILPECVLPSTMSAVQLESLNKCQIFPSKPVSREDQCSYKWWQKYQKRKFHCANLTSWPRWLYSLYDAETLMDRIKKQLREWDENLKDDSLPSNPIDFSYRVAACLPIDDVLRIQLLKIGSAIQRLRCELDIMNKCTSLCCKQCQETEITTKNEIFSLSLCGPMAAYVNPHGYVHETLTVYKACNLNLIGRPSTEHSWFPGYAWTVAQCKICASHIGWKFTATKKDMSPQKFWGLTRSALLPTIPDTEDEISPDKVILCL
T1 sequence (Q16531 whole entry partner): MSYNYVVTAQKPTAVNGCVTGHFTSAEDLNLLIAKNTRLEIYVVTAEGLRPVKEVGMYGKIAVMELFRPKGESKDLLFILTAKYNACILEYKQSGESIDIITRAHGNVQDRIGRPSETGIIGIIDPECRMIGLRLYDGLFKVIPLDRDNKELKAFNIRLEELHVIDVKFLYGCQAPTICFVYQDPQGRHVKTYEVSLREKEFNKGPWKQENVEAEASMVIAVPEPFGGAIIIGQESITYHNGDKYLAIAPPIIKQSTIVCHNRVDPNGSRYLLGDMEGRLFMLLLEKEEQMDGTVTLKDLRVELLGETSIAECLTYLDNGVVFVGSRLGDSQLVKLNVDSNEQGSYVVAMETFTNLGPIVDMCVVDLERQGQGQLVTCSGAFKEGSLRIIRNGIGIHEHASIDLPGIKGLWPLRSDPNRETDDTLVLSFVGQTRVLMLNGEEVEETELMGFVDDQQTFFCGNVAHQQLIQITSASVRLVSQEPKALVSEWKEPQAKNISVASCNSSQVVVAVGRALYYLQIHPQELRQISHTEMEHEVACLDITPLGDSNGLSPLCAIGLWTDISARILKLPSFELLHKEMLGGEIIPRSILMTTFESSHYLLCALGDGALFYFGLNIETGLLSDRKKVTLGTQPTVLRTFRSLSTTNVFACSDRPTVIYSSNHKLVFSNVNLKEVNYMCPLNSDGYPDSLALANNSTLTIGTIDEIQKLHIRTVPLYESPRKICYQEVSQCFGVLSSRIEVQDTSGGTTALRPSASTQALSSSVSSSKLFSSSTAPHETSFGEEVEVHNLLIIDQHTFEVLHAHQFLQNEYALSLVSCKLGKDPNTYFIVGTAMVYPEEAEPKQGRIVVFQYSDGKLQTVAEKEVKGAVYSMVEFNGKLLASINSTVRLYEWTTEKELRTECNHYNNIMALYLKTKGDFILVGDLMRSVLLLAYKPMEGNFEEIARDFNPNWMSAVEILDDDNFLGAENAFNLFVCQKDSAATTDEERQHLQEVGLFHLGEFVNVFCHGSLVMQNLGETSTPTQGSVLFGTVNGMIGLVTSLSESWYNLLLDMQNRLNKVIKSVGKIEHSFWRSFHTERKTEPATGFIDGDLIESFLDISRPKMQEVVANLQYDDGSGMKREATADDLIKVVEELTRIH
T2 sequence (Q9UKS7 whole entry): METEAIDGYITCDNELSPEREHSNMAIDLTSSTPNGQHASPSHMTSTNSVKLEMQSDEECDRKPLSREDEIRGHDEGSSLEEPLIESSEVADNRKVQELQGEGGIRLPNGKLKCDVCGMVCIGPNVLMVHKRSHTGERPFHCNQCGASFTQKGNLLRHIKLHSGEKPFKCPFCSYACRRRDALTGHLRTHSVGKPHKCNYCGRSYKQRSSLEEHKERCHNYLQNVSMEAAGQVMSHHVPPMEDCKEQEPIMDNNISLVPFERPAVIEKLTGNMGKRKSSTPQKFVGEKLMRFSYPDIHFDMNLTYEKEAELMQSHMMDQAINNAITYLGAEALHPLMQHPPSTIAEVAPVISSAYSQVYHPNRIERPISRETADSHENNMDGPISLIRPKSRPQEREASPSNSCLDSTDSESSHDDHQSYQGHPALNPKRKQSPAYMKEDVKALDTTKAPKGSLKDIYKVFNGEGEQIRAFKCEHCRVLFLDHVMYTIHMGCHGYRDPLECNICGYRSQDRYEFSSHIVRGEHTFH
T2 sequence (Q96SW2 whole entry): as the sequence (Q96SW2 whole entry partner) above
T2 sequence (Q16531 whole entry partner): as the sequence (Q16531 whole entry partner) above
T3 sequence (Q13422 whole entry): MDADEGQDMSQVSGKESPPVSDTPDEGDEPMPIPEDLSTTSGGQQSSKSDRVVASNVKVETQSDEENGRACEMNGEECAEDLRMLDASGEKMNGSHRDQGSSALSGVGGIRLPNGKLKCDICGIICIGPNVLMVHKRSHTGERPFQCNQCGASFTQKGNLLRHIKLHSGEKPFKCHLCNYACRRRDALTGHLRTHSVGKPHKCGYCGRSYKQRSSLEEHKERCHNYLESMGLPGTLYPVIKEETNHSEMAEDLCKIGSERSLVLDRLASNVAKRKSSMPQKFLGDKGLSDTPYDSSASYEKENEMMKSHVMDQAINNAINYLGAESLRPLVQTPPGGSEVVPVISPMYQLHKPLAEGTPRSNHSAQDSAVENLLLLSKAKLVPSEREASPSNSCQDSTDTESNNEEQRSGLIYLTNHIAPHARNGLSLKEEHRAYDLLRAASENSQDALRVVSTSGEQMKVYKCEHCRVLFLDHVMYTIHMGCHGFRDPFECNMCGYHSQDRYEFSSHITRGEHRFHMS
T3 sequence (Q96SW2 whole entry): as the sequence (Q96SW2 whole entry partner) above
T3 sequence (Q16531 whole entry partner): as the sequence (Q16531 whole entry partner) above

On to `CC(c1cccc(NC2=CC(=O)N(C3CCC(=O)NC3=O)C2=O)c1)N1CC(Cc2ccccc2)C1` (centres unmarked) [Compound 26], for which the DC50 came out at 8.9 nM in assay [1] and 2.8 nM in assay [2] (setting [5]).

Turning to `CC(C)(NCc1cccc(C(F)(F)F)c1)c1cccc(NC2=CC(=O)N(C3CCC(=O)NC3=O)C2=O)c1` (centres unmarked) [Compound 64], the DC50 turned out to be 9.2 nM in assay [1] and 6.8 nM in assay [2] (setting [5]).

Regarding `O=C1CCC(N2C(=O)C=C(Nc3cccc([C@H]4CNCC4C(=O)Nc4cccc(C(F)(F)F)c4)c3)C2=O)C(=O)N1` (some centres unmarked) [Compound 23], the values for the DC50 in assay [1] and in assay [2] (setting [5]) were 101 nM and 38 nM, respectively.

Take `CCC(NCCc1ccc(C(F)(F)F)c(Cl)c1)c1cccc(NC2=CC(=O)N(C3CCC(=O)NC3=O)C2=O)c1` (centres unmarked) [Compound 60, 3-(3-((3-(1-((3-chloro-4-(trifluoromethyl)phenethyl)-amino)propyl)phenyl)amino)-2,5-dioxo-2,5-dihydro-1H-pyrrol-1-yl)piperidine-2,6-dione]: the DC50 in assay [3] (setting [6]) came to 42 nM; in assay [4] (setting [7]) it was 240 nM; in assay [1], 6 nM; in assay [2] (setting [8]), 18 nM.

As for `CC(c1cccc(NC2=CC(=O)N(C3CCC(=O)NC3=O)C2=O)c1)N1CC(Oc2ccccc2)C1` (centres unmarked) [Compound 27], the DC50 came out at 19 nM in assay [1] and 6.4 nM in assay [2] (setting [5]).

For the compound `CC(CC(=O)Nc1ccnc(Cl)c1)c1cccc(NC2=CC(=O)N(C3CCC(=O)NC3=O)C2=O)c1` (centres unmarked) [Compound 9], the DC50 in assay [1] turned out to be 85 nM; in assay [2] (setting [5]), 80 nM.

As to `CN(CCc1ccc(C(F)(F)F)c(Cl)c1)C(C)(C)c1cccc(NC2=CC(=O)N(C3CCC(=O)NC3=O)C2=O)c1` (centres unmarked) [Compound 67, 3-(3-((3-(2-((3-chloro-4-(trifluoromethyl)phenethyl)(methyl)amino)propan-2-yl)phenyl)-amino)-2,5-dioxo-2,5-dihydro-1H-pyrrol-1-yl)piperidine-2,6-dione], the DC50 was 25 nM in assay [3] (Molt4 cells with endogenous HiBit-IKZF2 knock-in, 6 hours, Nano-Glo HiBit luminescence; read-out: IKZF2 DC50); 47 nM in assay [4] (Molt4 cells with endogenous HiBit-IKZF1 knock-in, 6 hours, Nano-Glo HiBit luminescence; read-out: IKZF1 DC50); 12 nM in assay [1]; 11 nM in assay [2] (setting [5]).

`Cc1ccc(NC(=O)CN(C)c2cccc(NC3=CC(=O)N(C4CCC(=O)NC4=O)C3=O)c2)cc1Cl` (centres unmarked) [Compound 44, N-(3-chloro-4-methylphenyl)-2-[(3-{[1-(2,6-dioxopiperidin-3-yl)-2,5-dioxo-2,5-dihydro-1H-pyrrol-3-yl]amino}phenyl)(methyl)amino]acetamide]: the DC50 in assay [1] was 6.9 nM; in assay [2] (setting [5]) it was 3.7 nM.

As for `CC(CC(=O)Nc1cccnc1Cl)c1cccc(NC2=CC(=O)N(C3CCC(=O)NC3=O)C2=O)c1` (centres unmarked) [Compound 7], the DC50 in assay [1] amounted to 48 nM; in assay [2] (setting [5]), 23 nM.

As for `CC(C)(CCNc1ccc(C(F)(F)F)c(Cl)c1)c1cccc(NC2=CC(=O)N(C3CCC(=O)NC3=O)C2=O)c1` (centres unmarked) [Compound 80, 3-(3-((3-(4-((3-chloro-4-(trifluoromethyl)phenyl)amino)-2-methylbutan-2-yl)phenyl)amino)-2,5-dioxo-2,5-dihydro-1H-pyrrol-1-yl)piperidine-2,6-dione], the DC50 in assay [1] turned out to be 24 nM; in assay [2] (setting [5]) it was 50 nM.

On to `Cc1ccc(NC(=O)CC(c2cccc(NC3=CC(=O)N(C4CCC(=O)NC4=O)C3=O)c2)C(C)C)cc1Cl` (centres unmarked) [Compound 30, N-(3-chloro-4-methylphenyl)-3-(3-((1-(2,6-dioxopiperidin-3-yl)-2,5-dioxo-2,5-dihydro-1H-pyrrol-3-yl)amino)phenyl)-4-methylpentanamide], for which the DC50 stood at 2.2 nM in assay [1] and 50 nM in assay [2] (setting [5]).

With `CN(C)CC(CC(=O)Nc1ccc(C(F)(F)F)c(Cl)c1)c1cccc(NC2=CC(=O)N(C3CCC(=O)NC3=O)C2=O)c1` (centres unmarked) [Compound 73, N-(3-chloro-4-(trifluoromethyl)phenyl)-4-(dimethylamino)-3-(3-((1-(2,6-dioxopiperidin-3-yl)-2,5-dioxo-2,5-dihydro-1H-pyrrol-3-yl)amino)phenyl)butanamide], the results for the DC50 in assay [1] and in assay [2] (setting [5]) were 4.4 nM and 5.2 nM, respectively.

For `CC(c1cccc(NC2=CC(=O)N(C3CCC(=O)NC3=O)C2=O)c1)N1CC(c2ccccc2)C1` (centres unmarked) [Compound 25], the DC50 was 13 nM in assay [1] and 5.8 nM in assay [2] (setting [5]).

For `CC(CC(=O)Nc1ccc(Cl)nc1)c1cccc(NC2=CC(=O)N(C3CCC(=O)NC3=O)C2=O)c1` (centres unmarked) [Compound 8], the DC50 worked out at 17 nM in assay [1] and 10 nM in assay [2] (setting [5]).

For the compound `Cc1ccc(NC(=O)CC2(c3cccc(NC4=CC(=O)N(C5CCC(=O)NC5=O)C4=O)c3)CCOCC2)cc1Cl` (centres unmarked) [Compound 18], the DC50 in assay [1] came out at 8.8 nM; in assay [2] (setting [5]) it was 39 nM.

In the case of `CC(C)(NCCc1ccc(C(F)(F)F)c(Cl)c1)c1cccc(NC2=CC(=O)N(C3CCC(=O)NC3=O)C2=O)c1` (centres unmarked) [Compound 66, 3-(3-((3-(2-((3-chloro-4-(trifluoromethyl)phenethyl)amino)propan-2-yl)phenyl)amino)-2,5-dioxo-2,5-dihydro-1H-pyrrol-1-yl)piperidine-2,6-dione], the DC50 in assay [3] (setting [6]) came to 2.3 nM; in assay [4] (setting [7]), 3.8 nM; in assay [1] it was 1.2 nM; in assay [2] (setting [8]), 1.1 nM.

In the case of `Cc1ccc(NC(=O)C2CC2c2cccc(NC3=CC(=O)N(C4CCC(=O)NC4=O)C3=O)c2)cc1Cl` (centres unmarked) [Compound 21], the DC50 was found to be 4.4 nM in assay [1] and 2 nM in assay [2] (setting [5]).

For `CN(CCc1ccc(C(F)(F)F)c(Cl)c1)Cc1cccc(NC2=CC(=O)N(C3CCC(=O)NC3=O)C2=O)c1` (centres unmarked) [Compound 48, 3-(3-((-(((3-chloro-4-(trifluoromethyl)phenethyl)(methyl)amino)methyl)phenyl)amino)-2,5-dioxo-2,5-dihydro-1H-pyrrol-1-yl)piperidine-2,6-dione], the figures for the DC50 in assay [1] and in assay [2] (setting [8]) were 19 nM and 3.7 nM, respectively.

For `O=C1CCC(N2C(=O)C=C(Nc3cccc(C4CC(C(=O)Nc5cccc(C(F)(F)F)c5)C4)c3)C2=O)C(=O)N1` (centres unmarked) [Compound 22], the half-maximal degradation concentration (DC50) turned out to be 134 nM in assay [1] and 14 nM in assay [2] (setting [5]).
